How the values were obtained:
IL-17AA and IL-17RA = molecular target: T1, IL-17AA and IL-17RA (Homo sapiens, UniProt Q16552); test: Competitive inhibition of human IL-17AA and IL-17RA binding (HTRF); details: recombinant IL-17AA (His-tag) and IL-17RA (hFc-tag); read-out: IC50 for Inhibiting IL-AA/IL-RA Binding
T1 construct: purchased Sino Biological 12047-H07B (IL-17AA); 10895-H02H (IL-17RA)
T1 sequence (Q16552 24-155): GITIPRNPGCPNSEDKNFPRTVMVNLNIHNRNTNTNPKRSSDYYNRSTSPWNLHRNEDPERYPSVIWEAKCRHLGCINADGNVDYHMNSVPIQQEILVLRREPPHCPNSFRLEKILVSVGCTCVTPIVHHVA
In short: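 His-IL-17AA (1 nM) premixed 1 h with anti-His-Tb (0.4 nM), and Fc-IL-17RA (1 nM) with anti-IgG-d2 (1 μg/mL); these are pre-mix levels. Compounds, diluted from 10 μM, preincubated 2 h RT with IL-17AA mix; IL-17RA mix then added, 20 min. 665/615 ratio vs no-compound and no-IL-17AA controls; IC50 by 4-parameter fit.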

[1] = tested on: IL-17AA-induced IL-17 signaling pathway; test: Inhibition of IL-17AA-induced IL-17 signaling pathway in HEK-Blue IL-17 reporter cells (SEAP); type: cell-based; details: Homo sapiens; HEK-Blue IL-17 cells, IL-17AA 2.5 ng/mL, 20 hours; read-out: IC50 for Inhibiting IL-AA Signaling
In short: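 HEK-Blue IL-17 cells (HEK293 expressing human IL-17RA/RC, ACT1 and NF-κB/AP-1-driven SEAP), 10,000/well, pre-incubated with compound (serial dilution from 10 μM) for 1 h at 37 °C, then stimulated with IL-17AA at 2.5 ng/mL final for 20 h. SEAP in supernatant read with Quanti-Blue at 620 nm; IC50 by 4-parameter fit.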

[2] = tested on: IL-17AF-induced IL-17 signaling pathway; test: Inhibition of IL-17AF-induced IL-17 signaling pathway; type: cell-based; details: Homo sapiens; IL-17AF used instead of IL-17AA; read-out: IC50 for Inhibiting IL-AF Signaling
In short: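 HEK293-derived HEK-Blue IL-17 cells (IL-17RA/RC, ACT1, NF-κB/AP-1-driven SEAP) preincubated 1 hour at 37° C with serially diluted compound from 10 μM, then stimulated with IL-17AF for 20 hours. SEAP read colorimetrically at 620 nm; IC50 from 4-parameter fit of % inhibition.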

[3] = tested on: rat collagen induced arthritis (CIA) model; test: In vivo efficacy study in rat collagen induced arthritis (CIA) model; details: female Lewis rats, 20 mg/kg PO once a day, 14 days
Description: Example 45. In Vivo Efficacy Study in Rat Collagen Induced Arthritis (CIA) Model
Bovine type II collagen solution (Chondrex) was emulsified with an equal volume of incomplete Freund's adjuvant (IFA, Sigma) to achieve an emulsion with a collagen concentration of 1 mg/mL. Female Lewis rats were immunized with the emulsion (200 μL per rat) through subcutaneous injection at the base of tail. After seven days from the initial immunization, rats received a booster injection of the emulsion (100 μL per rat). Each paw of the rat was evaluated and scored on a 0-4 scale based on arthritis severity, and the arthritis score of each rat was the sum of scores from four paws. When the arthritis scores reached 2-3, rats were randomized into four groups and dosed once a day via oral gavage (PO) with vehicle, compounds 35, 49 and 66 for 14 days, respectively. The arthritis score was assessed every other day. Efficacy was calculated by [1−(T14−T0)/(V14−V0)]×100%, where T14 and V14 are the average arthritis scores of the treatment group and the vehicle group on Day 14 of measurement, respectively, while T0 and V0 are the average arthritis scores of the treatment group and the vehicle group on Day 0, respectively. Statistical significance of difference in arthritis scores between the treatment and vehicle groups was analyzed using one-way ANOVA followed by Dunnett's test, and P<0.05 was considered statistically significant.

| IC50 (IL-17AA and IL-17RA) [nM] | IC50 [1] [nM] | IC50 [2] [nM] | SMILES | suppression of arthritis disease progression (arthritis score) [3] |
| --- | --- | --- | --- | --- |
| 1.1 | 3.3 | 8.4 | CCC(=O)N[C@@H](c1ncnn1CC1CC1)[C@@H](C)c1ccc(NC(=O)[C@@H](NC(=O)c2nonc2C)C(C2CC2)C2CC2)c(F)c1 [Compound 66, N-((S)-1,1-dicyclopropyl-3-((4-((1R,2S)-1-(1-(cyclopropylmethyl)-1H-1,2,4-triazol-5-yl)-1-propionamidopropan-2-yl)-2-fluorophenyl)amino)-3-oxopropan-2-yl)-4-methyl-1,2,5-oxadiazole-3-carboxamide] | completely suppressed arthritis disease progression |
| 5.2 | 4.5 | 8.6 | [2H]C([2H])([2H])n1nccc1C(=O)N[C@H](C(=O)Nc1ccc([C@H](C)[C@@H](NC(=O)COC)c2ncnn2CC2CC2)cc1F)C(C1CC1)C1CC1 [Compound 35, N-((S)-1,1-dicyclopropyl-3-((4-((1R,2S)-1-(1-(cyclopropylmethyl)-1H-1,2,4-triazol-5-yl)-1-(2-methoxyacetamido)propan-2-yl)-2-fluorophenyl)amino)-3-oxopropan-2-yl)-1-(methyl-d3)-1H-pyrazole-5-carboxamide] | completely suppressed arthritis disease progression |

From patent US20260083708A1, “IL-17 MODULATORS AND USES THEREOF” (NNOCARE PHARMA INC., priority 2024, published 2026)
